{"source": "paper PMC11091978", "about": "(ACS Pharmacology & Translational Science, 2024)", "biological_target": "NLRP3 (Homo sapiens, UniProt Q96P20)", "sequence (Q96P20 whole entry)": "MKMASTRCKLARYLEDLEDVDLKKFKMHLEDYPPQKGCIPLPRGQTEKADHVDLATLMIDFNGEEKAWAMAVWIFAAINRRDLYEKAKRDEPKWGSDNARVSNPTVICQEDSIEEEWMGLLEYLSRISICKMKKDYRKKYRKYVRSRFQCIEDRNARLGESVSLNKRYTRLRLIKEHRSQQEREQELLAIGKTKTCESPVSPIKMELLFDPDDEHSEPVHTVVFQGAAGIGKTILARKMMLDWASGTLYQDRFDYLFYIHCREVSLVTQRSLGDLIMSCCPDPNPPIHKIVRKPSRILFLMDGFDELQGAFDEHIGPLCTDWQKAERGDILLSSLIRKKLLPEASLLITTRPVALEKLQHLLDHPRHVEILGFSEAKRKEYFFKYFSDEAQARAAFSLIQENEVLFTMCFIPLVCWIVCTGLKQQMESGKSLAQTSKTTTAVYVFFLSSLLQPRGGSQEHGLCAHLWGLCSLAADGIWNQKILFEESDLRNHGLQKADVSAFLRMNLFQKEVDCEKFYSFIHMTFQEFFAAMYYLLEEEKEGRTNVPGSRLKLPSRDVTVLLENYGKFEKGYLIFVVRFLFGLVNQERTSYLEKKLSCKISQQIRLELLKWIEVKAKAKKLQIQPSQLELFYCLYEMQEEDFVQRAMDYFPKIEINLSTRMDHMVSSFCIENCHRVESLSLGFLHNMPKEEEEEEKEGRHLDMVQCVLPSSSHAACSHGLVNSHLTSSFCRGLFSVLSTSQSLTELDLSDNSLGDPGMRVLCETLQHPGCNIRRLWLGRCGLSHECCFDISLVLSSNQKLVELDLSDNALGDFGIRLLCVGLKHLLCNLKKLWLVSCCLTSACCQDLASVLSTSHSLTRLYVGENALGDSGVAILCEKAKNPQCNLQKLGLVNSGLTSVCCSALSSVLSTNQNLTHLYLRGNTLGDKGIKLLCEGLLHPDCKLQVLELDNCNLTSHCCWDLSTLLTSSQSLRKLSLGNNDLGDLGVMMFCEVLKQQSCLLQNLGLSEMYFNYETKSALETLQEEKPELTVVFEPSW", "format": "cell-based"}
{"smiles": "Cn1cc(N(C[C@@H]2CCCO2)S(=O)(=O)NC(=O)Nc2c3c(cc4c2CCC4)CCC3)cn1", "note": "[NT-0249, [(1,2,3,5,6,7-hexahydro-s-indacen-4-yl)carbamoyl][(1-methyl-1H-pyrazol-4-yl)({[(2S)-oxolan-2-yl]methyl})sulfamoyl]azanide]", "values": [{"measurement": "IC50", "value": 0.011, "unit": "µM"}]}
